From patent US7737125B2, “LNA antagonists targeting the androgen receptor” (Enzon Pharamaceuticals, Inc., priority 2007, dated 2010)
Strand notation (5' to 3'): a small letter for the sugar, then the base; units joined by * are phosphorothioate-linked, units joined directly phosphodiester-linked; [ ] holds rarer units or linkages, { } end groups; capitals alone tell only the bases. l = locked nucleic acid (LNA); [5mC] = 5-methylcytosine; d = 2'-deoxy (DNA)

What was measured:
[1] = system: Caspase 3/7 activity in A549 cells; assay: Caspase 3/7 activity (Caspase-Glo 3/7) in A549 cells; assay type: cell-based, human; details: 4 nM and 16 nM; 14 h, 48 h and 72 h (FIG. 16)
Experimental: (§1) LNCaP prostate cancer cells and A549 lung cancer cells were seeded to a density of 150,000 cells per well in a 6-well plate the day prior to transfection. A549 cells were cultured in DMEM (Sigma)+10% fetal bovine serum (FBS)+2 mM Glutamax I+gentamicin (25 μg/ml) whereas LNCaP cells were cultured in RPMI 1640 Medium (Sigma)+10% fetal bovine serum CUBS)+2 mM Glutamax I+gentamicin (25 μg/ml). The next day medium was removed followed by addition of 1.2 ml OptiMEM containing 5 μg/ml Lipofectamine2000 (Invitrogen). Cells were incubated for 7 min before adding 0.3 ml oligonucleotides diluted in OptiMEM. The final oligonucleotide concentrations were 4 nM and 16 nM. After 4 hours of treatment, media was removed and cells were trypsinized and seeded to a density of 5000 cells per well in a white 96 well plate (Nunc) in 100 μl media. Caspase 3/7 activity was measured at the times indicated by adding 100 μl Caspase-Glo 3/7 assay (Promega). Caspase 3/7 activity was measured using a luminometer. The caspase 3/7 activities were measured at three different time points 14 h, 48 h and 72 h (See FIG. 15 and FIG. 16).

[2] = system: human androgen receptor mRNA; assay: AR mRNA knock-down in LNCaP, 24 h post-transfection, 0.5-16 nM (qPCR); assay type: cell-based; details: 0.5, 1, 2, 4, 8 and 16 nM, 24 h post-transfection (FIG. 11)
Experimental: FIG. 11: AR mRNA in LNCaP, 24 h post-transfection
(§2) Oligonucleotides were evaluated for their potential to knock down androgen receptor mRNA expression at concentrations of 0.5, 1, 2, 4, 8 and 16 nM (see FIG. 11). LNCaP prostate cancer cells and A549 lung cancer cells were seeded to a density of 150,000 cells per well in a 6-well plate the day prior to transfection. A549 cells were cultured in DMEM (Sigma)+10% fetal bovine serum (FBS)+2 mM Glutamax I+gentamicin (25 μg/ml). LNCaP cells were cultured in RPMI 1640 Medium (Sigma)+10% fetal bovine serum (FBS)+2 mM Glutamax I+gentamicin ([…]). On the following day, medium was removed followed by addition of 1.2 ml OptiMEM containing 5 μg/ml Lipofectamine2000 (Invitrogen). Cells were incubated for 7 min before adding 0.3 ml oligonucleotides diluted in OptiMEM. The final oligonucleotide concentrations were 0.5, 1, 2, 4, 8 and 16 nM. Cells were washed and serum-containing media was added. After oligomer treatment cells were allowed to recover for 20 hours before they were harvested for RNA analysis. The procedure for RNA isolation, cDNA synthesis and qPCR were as described in Examples 5, 6 and 7.

[3] = system: mouse androgen receptor mRNA; assay: In vivo knock-down of AR mRNA expression in mouse liver (QPCR); details: nude mice, 100 mg/kg i.v. q3dx4, liver 24 h after last dosing, normalised to mouse GAPDH, relative to saline treated animals
Experimental: Nude mice were dosed i.v. q3dx4 with 100 mg/kg oligonucleotide (group size of 5 mice). The antisense oligonucleotides (SEQ ID:48, SEQ ID:51, SEQ ID:58, SEQ ID:63, SEQ ID:77) were dissolved in phosphate buffered saline. Animals were sacrificed 24 h after last dosing and liver tissue was sampled and stored in RNA later until RNA extraction and QPCR analysis. Total RNA was extracted and AR mRNA expression in liver samples was measured by QPCR as described in Example 7 using a mouse AR QPCR assay (cat. Mm01238475_m1, Applied Biosystems). Results were normalised to mouse GAPDH (cat. no. 4352339E, Applied Biosystems) and knock-own was quantitated relative to saline treated controls. The data in Table 4 are presented as percentage down-regulation relative to saline treated animals.

[4] = system: Caspase 3/7 activity in LNCaP cells; assay: Caspase 3/7 activity (Caspase-Glo 3/7) in LNCaP cells; assay type: cell-based, human; details: 4 nM and 16 nM; 14 h, 48 h and 72 h (FIG. 15)
Experimental: as §1

A549 lung cancer cells = assay: Measurement of proliferating viable cells (MTS assay), A549; assay type: cell-based, human; details: 4 nM and 16 nM, time course post-transfection (FIG. 13)
Experimental: (§3) LNCaP prostate cancer and A549 lung cancer cells were seeded to a density of 150,000 cells per well in a 6-well plate the day prior to transfection. A549 cells were cultured in DMEM (Sigma)+10% fetal bovine serum (FBS)+2 mM Glutamax I+gentamicin (25 μg/ml) whereas LNCaP cells were cultured in RPMI 1640 Medium (Sigma)+10% fetal bovine serum (FBS)+2 mM Glutamax I+gentamicin (25 μg/ml). On the following day, medium was removed followed by addition of 1.2 ml OptiMEM containing 5 μg/ml Lipofectamine2000 (Invitrogen). Cells were incubated for 7 min before adding 0.3 ml oligonucleotides diluted in OptiMEM. The final oligonucleotide concentrations were 4 nM and 16 nM. After 4 hours of treatment, media was removed and cells were trypsinized and seeded to a density of 5000 cells per well in a clear 96 well plate (Scientific Orange no. 1472030100) in 100 μl media. Viable cells were measured at the times indicated by adding 10 μl the tetrazolium compound [3-(4,5-[…])-5-(3-carboxymethoxyphenyl)-2-(4-sulfophenyl)-2H-tetrazolium, inner salt; MTS] and an electron coupling reagent (phenazine ethosulfate; PES) (CellTiter 96® AQueous One Solution Cell Proliferation Assay, Promega). Viable cells were measured at 490 nm in a Powerwave (Biotek Instruments). The OD490 nm measurements were plotted against time/h. (See FIG. 13 and FIG. 14).

[5] = system: human androgen receptor mRNA; assay: AR mRNA knock-down in A549, 24 h post-transfection, 0.5-16 nM (qPCR); assay type: cell-based; details: 0.5, 1, 2, 4, 8 and 16 nM, 24 h post-transfection (FIG. 12)
Experimental: FIG. 12: AR mRNA in A549, 24 h post-transfection
as §2

[6] = system: LNCaP prostate cancer cells; assay: Measurement of proliferating viable cells (MTS assay), LNCaP; assay type: cell-based, human; details: 4 nM and 16 nM, time course post-transfection (FIG. 14)
Experimental: as §3

Which results are given for “5′-AsCsCsasasgstststscststscsAsGsC-3′ (antisense lA*l[5mC]*l[5mC]*dA*dA*dG*dT*dT*dT*dC*dT*dT*dC*lA*lG*l[5mC]) [SEQ ID NO: 58, LNA gapmer antisense oligonucleotide]”?
Caspase 3/7 activity in A549 cells [1]: induce caspase 3/7 activity; Knock down of AR mRNA expression in LNCaP prostate cancer cell line [2]: potent in knocking down AR mRNA expression; Liver (% KD) of AR mRNA expression ([3]; listed as SEQ ID: 58, 100 mg/kg): 95.2 +/− 1.0%; Caspase 3/7 activity in LNCaP cells [4]: induce caspase 3/7 activity; Growth of A549 lung cancer cells (viable cells, OD490 nm vs time) (A549 lung cancer cells): inhibit growth; Knock down of AR mRNA expression in lung cancer cell line A549 [5]: potent in knocking down AR mRNA expression; Growth of LNCaP prostate cancer cells (viable cells, OD490 nm vs time) [6]: inhibit growth

“5′-CsCsCsasasgsgscsascstsgscsAsGsA-3′ (antisense l[5mC]*l[5mC]*l[5mC]*dA*dA*dG*dG*dC*dA*dC*dT*dG*dC*lA*lG*lA) [SEQ ID NO: 77, LNA gapmer antisense oligonucleotide]” was tested. Which “Caspase 3/7 activity in A549 cells” value [1] did it give?
Its value is “induce caspase 3/7 activity”.

And the “Knock down of AR mRNA expression in LNCaP prostate cancer cell line” value [2]?
The value was “potent in knocking down AR mRNA expression”.

What about the “Liver (% KD) of AR mRNA expression” value ([3]; listed as SEQ ID: 77, 100 mg/kg) of the same substance?
The value was 91.9 +/− 3.9%.

And the “Caspase 3/7 activity in LNCaP cells” value [4]?
Its value is “induce caspase 3/7 activity”.

And the “Growth of A549 lung cancer cells (viable cells, OD490 nm vs time)” value (A549 lung cancer cells)?
The value was “inhibit growth”.

What about the “Knock down of AR mRNA expression in lung cancer cell line A549” value [5] of the same substance?
The value was “potent in knocking down AR mRNA expression”.

And the “Growth of LNCaP prostate cancer cells (viable cells, OD490 nm vs time)” value [6]?
The value was “inhibit growth”.
